Experimental data as given in patent US20260102359A1, “COMBINATION TREATMENT OF DERMAL AND TRANSDERMAL FIBROTIC DISEASES, DISORDERS AND ASSOCIATED PAIN AND INFLAMMATION” (ERESINA, LLC, priority 2022, published 2026).
Structures can show the parent of a compound that is named as a salt.

tested on: hDMFa myofibroblast cells

Molecule	Compound Myofibroblast Cytotoxicity Activity
Cl.OC(c1cc(C(F)(F)F)nc2c(C(F)(F)F)cccc12)C1CCCCN1 (stereo not drawn) [Cmpd 644, Mefloquine hydrochloride]	++++
c1cc(-c2cnn3cc(-c4ccc(N5CCNCC5)cc4)cnc23)c2cccnc2c1 [Cmpd 575, LDN-212854]	++++
Oc1ccc(C=Cc2cc(O)cc(O)c2)cc1 [Cmpd 829, Resveratrol]	++
CN(C)CCN(Cc1ccc(Cl)cc1)c1ccccn1 [Cmpd 250, Chloropyramine hydrochloride]	++
Oc1ncnc2[nH]ncc12 [Cmpd 37]	+
COc1cc2ncnc(Nc3ccc(F)c(Cl)c3)c2cc1NC(=O)/C=C/CN1CCCCC1 [Cmpd 313, Dacomitinib (PF299804, PF299)]	+++
CC1=CCC2CC1C2(C)C (racemic) [Cmpd 18, (±)-α-Pinene]	++
CC=Cc1ccc(O)c(OC)c1 [Cmpd 536, Isoeugenol]	++
CCOc1nc2cccc(C(=O)OCc3oc(=O)oc3C)c2n1Cc1ccc(-c2ccccc2-c2noc(=O)[nH]2)cc1 [Cmpd 149, Azilsartan Medoxomil]	++
COc1cc2c(cc1OC)C1CC(=O)C(CC(C)C)CN1CC2 (stereo not drawn) [Cmpd 933, Tetrabenazine]	+++
O=C(O)c1ccc(O)c(O)c1 [Cmpd 804, Protocatechuic acid]	++
C[C@H](CCC(=O)O)[C@H]1CC[C@H]2[C@@H]3CC[C@@H]4C[C@H](O)CC[C@]4(C)[C@H]3C[C@H](O)[C@]12C [Cmpd 339, Deoxycholic acid sodium salt]	+++++
O=C(N/N=C/c1ccc([N+](=O)[O-])o1)c1ccc(O)cc1 [Cmpd 711, Nifuroxazide]	++
O=C(O)c1ccccc1C(=O)O [Cmpd 781, Phthalic acid]	++
NCC(=O)O [Cmpd 487, Glycine (GLY)]	++++
CO[C@H]1C[C@@H]2CC[C@@H](C)[C@@](O)(O2)C(=O)C(=O)N2CCCC[C@H]2C(=O)O[C@H]([C@H](C)C[C@@H]2CC[C@@H](O)[C@H](OC)C2)CC(=O)[C@H](C)/C=C(\C)[C@@H](O)[C@@H](OC)C(=O)[C@H](C)C[C@H](C)/C=C/C=C/C=C/1C [Cmpd 820, Rapamycin (Sirolimus)]	++++
C[C@]12CC[C@H]3[C@@H](CC[C@@]45O[C@@H]4C(O)=C(C#N)C[C@]35C)[C@@H]1CC[C@@H]2O [Cmpd 973, Trilostane]	++
C[C@H]1c2cccc(O)c2C(=O)C2=C(O)[C@]3(O)C(=O)C(C(N)=O)=C(O)[C@@H](N(C)C)[C@@H]3[C@@H](O)[C@@H]21 [Cmpd 388, Doxycycline HCl]	++
CCCc1nn(C)c2c(=O)[nH]c(-c3cc(S(=O)(=O)N4CCN(C)CC4)ccc3OCC)nc12.CS(=O)(=O)O [Cmpd 862, Sildenafil mesylate]	++
CO/N=C(\C(=O)N[C@@H]1C(=O)N2C(C(=O)O)=C(COC(C)=O)CS[C@H]12)c1csc(N)n1 [Cmpd 233, Cefotaxime (sodium salt)]	+++
O=c1ccn([C@H]2C[C@H](O)[C@@H](CO)O2)c(=O)[nH]1 [Cmpd 47, 2-Deoxyuridine]	++
CC1CCC(C(C)C)C(O)C1 (racemic) [Cmpd 16, (±)-Menthol]	++
NCCC(O)(P(=O)([O-])O)P(=O)([O-])O.[Na+].[Na+] [Cmpd 756, Pamidronate Disodium]	+++

Molecule	Compound Myofibroblast Cytotoxicity Activity
O=C(O)CCC(=O)Nc1ccc(S(=O)(=O)Nc2nccs2)cc1 [Cmpd 891, Succinylsulfathiazole]	++
OC1(c2ccc(Cl)c(C(F)(F)F)c2)CCN(CCCC(c2ccc(F)cc2)c2ccc(F)cc2)CC1 [Cmpd 765, Penfluridol]	+++
CC(=O)SCC(Cc1ccccc1)C(=O)NCC(=O)OCc1ccccc1 (stereo not drawn) [Cmpd 817, Racecadotril]	++
C[C@H](CCC(=O)NCC(=O)O)[C@H]1CC[C@H]2[C@@H]3[C@H](O)C[C@@H]4C[C@H](O)CC[C@]4(C)[C@H]3C[C@H](O)[C@]12C [Cmpd 488, Glycocholic Acid]	++++
S=C(NCc1ccc2c(c1)OCO2)N1CCN(c2ncnc3c2oc2ccccc23)CC1 [Cmpd 117, Amuvatinib (MP-470,HPK 56)]	++
CN1CCN2c3ncccc3Cc3ccccc3C2C1 (stereo not drawn) [Cmpd 679, Mirtazapine]	++++
Clc1ccc(C(Cn2ccnc2)OCc2c(Cl)cccc2Cl)c(Cl)c1 (stereo not drawn) [Cmpd 535, Isoconazole nitrate]	+++
Cc1c(S(=O)(=O)[O-])oc2c1C(=O)C(=O)c1c-2ccc2c1CCCC2(C)C.[Na+] [Cmpd 914, Tanshinone IIA---sulfonic sodium]	++
COc1cc(O)c(C(=O)c2ccccc2)cc1S(=O)(=O)O [Cmpd 901, Sulisobenzone]	++
CC1(COc2ccc3c(c2)ncn3-c2ccc3cccc(N4CCC(N)CC4)c3n2)COC1 [Cmpd 296, Crenolanib (CP-868596)]	+++++
CC(C)(C)C(=O)Oc1ccc(S(=O)(=O)Nc2ccccc2C(=O)NCC(=O)O)cc1 [Cmpd 866, Sivelestat (ONO-5046)]	++
CC1(C)Cc2c(-c3ccccc3)c(-c3ccc(Cl)cc3)c(CC(=O)O)n2C1 [Cmpd 588, Licofelone]	+++
CCCCc1oc2ccccc2c1C(=O)c1cc(I)c(OCCN(CC)CC)c(I)c1 [Cmpd 107, Amiodarone HCl]	+++
N=C(N)c1ccc(OCCCCCOc2ccc(C(=N)N)cc2)cc1.O=S(=O)(O)CCO.O=S(=O)(O)CCO [Cmpd 768, Pentamidine isethionate]	+++
NCc1ccc(S(N)(=O)=O)cc1 [Cmpd 626, Mafenide Acetate]	++++
Fc1ccc([C@@H]2CCNC[C@H]2COc2ccc3c(c2)OCO3)cc1 [Cmpd 758, Paroxetine HCl]	+++
CN(C/C=C/C#CC(C)(C)C)Cc1cccc2ccccc12 [Cmpd 926, Terbinafine]	++
CC(C)(c1ccc(O)cc1)c1ccc(O)cc1 [Cmpd 186, Bisphenol A]	++
C[C@H]1O[C@@H](n2cc(F)c(=O)[nH]c2=O)[C@H](O)[C@@H]1O [Cmpd 387, Doxifluridine]	++++
Fumalic acid [Cmpd 474]	++
COc1ccc2c(c1)C(=O)N(CCc1ccc(S(=O)(=O)NC(=O)NC3CCCCC3)cc1)C(=O)C2(C)C [Cmpd 485, Gliquidone]	++
Cc1cn([C@H]2C[C@H](O)[C@@H](CO)O2)c(=O)[nH]c1=O [Cmpd 943, Thymidine]	++
